Results taken from US20240360148A1 (SUVALENT THERAPEUTICS, INC., priority 2021, published 2024).
Converted amounts (≈) assume the structure as drawn. Read-outs that look alike come from different tables or passages of the source.

Assays:
Solubility Evaluation = type: physicochemical; conditions: kinetic from dmso stock, 1 hour at RT
Description: The compounds of interest were evaluated for their solubility in various biological solutions. Specifically, aliquots (8 μL) of reference and test compound stock solutions (10 mM) were added into 792 μL of buffer (PBS, pH7.4, FaSSIF, pH 6.5, or FaSSGF, pH 1.6) respectively (Final DMSO conc.: 1%). Sample tubes were shaken for 1 hour (1000 rpm) at RT. The experiment was calibrated using 300 μM spiked solution (SS) in MeOH/CAN (4:1) by adding 6 μL of 10 mM compound stock solution in 194 μL MeOH/ACN(4:1) ranging from 60 μM to 0.02 μM. The samples were centrifuged (10 min-12000 rpm) to precipitate un-dissolved particles. The supernatants were transferred to a new tube or plate. Supernatants were diluted 10 times and 100 times with 100 mM buffer then analyzed by LC-MS/MS. SGF=simulated gastric fluid, SIF=simulated intestinal fluid, PBS=phosphate buffered saline pH 7.4 Values are noted in μM.

[1] = Plasma protein binding, equilibrium dialysis, monkey plasma; type: in vitro ADME; conditions: 5 hours at 37° C., read-out: PPB % bound Monkey (converted)
Description: (§1) The compounds of interest were evaluated for various PK parameters. Specifically CACO permeability/efflux and plasma protein binding (PPP) were determined. Stock solutions were prepared at 10 mM in DMSO for test and reference compounds. Aliquots of the stock solution were diluted to 500× of final concentration (0.5 mM) with DMSO, then further diluted upon the addition of bank PE3-buffer to 20× of final concentration (20 μM). Then test and reference compounds were prepared in plasma at 1 μM. For 0 hour incubation: 25 μL of the plasma spiked with test and reference compounds was transferred into a 96-well sample preparation plate, and then 25 μL blank PB-buffer was added. The samples were quenched by 200 μL of IS solution to prepare [Initial]0h samples. For 5 hours incubation: 100 μL of the plasma spiking with test and reference compounds was loaded on donor side, and 100 μL of blank PB-buffer were loaded on receiver side of the equilibrium dialysis device. Samples were incubated in an air-bath shaker (60 rpm) for 5 hours at 37° C. After 5 hours incubation, 25 μL of samples (from both the donor sides and receiver sides of the dialysis apparatus) was aspirated and added into new sample preparation plates, separately. 25 μL of blank PB-buffer was added to donor side samples and 25 μL of blank plasma was added to receiver side samples to balance the matrix. The samples were quenched with 200 μL of IS solution. The assay plate was shaken at the vibrator (Hangzhou Allsheng, MX100-4A) for 10 min (600 rpm) and then centrifuged at 5,594×g for 15 min (Thermo Multifuge×3R). An aliquot of the 50 μL supernatant was taken from each well and diluted by 50 μL distilled water, then analyzed by UPLC-MS/MS.

[2] = Plasma protein binding, equilibrium dialysis, human plasma; type: in vitro ADME; conditions: 5 hours at 37° C., read-out: PPB % bound Human (converted)
Description: as §1

[3] = Plasma protein binding, equilibrium dialysis, dog plasma; type: in vitro ADME; conditions: 5 hours at 37° C., read-out: PPB % bound Dog (converted)
Description: as §1

[4] = Plasma protein binding, equilibrium dialysis, rat plasma; type: in vitro ADME; conditions: 5 hours at 37° C., read-out: PPB % bound Rat (converted)
Description: as §1

[5] = Plasma protein binding, equilibrium dialysis, mouse plasma; type: in vitro ADME; conditions: 5 hours at 37° C., read-out: PPB % bound Mouse (converted)
Description: as §1

[6] = tested on: sumoylation levels (SUMO 2/3 conjugates) in HCT-116 cells; test: HCT-116 4 Hour Cell Assay (Western, SUMO 2/3 conjugates); type: cell-based; conditions: Homo sapiens, HCT-116, 4 h, 4 h treatment, Anti-Sumo 2-3 immunoblot, read-out: HCT-116 Western 4 h IC50 (μM) Ave
How it was run: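 Cells treated 4 h with 11 three-fold dilutions from 25 μM; lysed in RIPA with NEM and Benzonase. Non-reducing SDS-PAGE immunoblot with anti-SUMO 2/3 mAb, IRDye fluorescent detection; conjugate signal normalized to total protein stain, IC50 from quantified bands.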

[7] = PBS (phosphate buffered saline), aqueous buffer, phosphate buffered saline pH 7.4, 1% DMSO, read-out: Solubilities PBS
[8] = simulated intestinal fluid (FaSSIF, pH 6.5), 1% DMSO, read-out: Solubilities SIF

| solubility at 1 h (Solubility Evaluation; [7]) [µM] | solubility at 1 h (Solubility Evaluation; [8]) [µM] | fraction unbound at 5 h, 1 μM [1] | fraction unbound at 5 h, 1 μM [2] | fraction unbound at 5 h, 1 μM [3] | fraction unbound at 5 h, 1 μM [4] | fraction unbound at 5 h, 1 μM [5] | IC50 [6] [µM] | Compound |
| --- | --- | --- | --- | --- | --- | --- | --- | --- |
| 41 (≈ 20 µg/mL) | 29 (≈ 14.2 µg/mL) | 0.009 | 0.008 | 0.001 | 0.004 | 0.005 | 0.0974 | C=CC(=O)N1Cc2sc(C#N)c(C)c2[C@H](c2cccc(F)c2-c2cn(CC)nc2C(F)(F)F)C1 [Compound 222] |
| 97 (≈ 52.9 µg/mL) | > 100 | 0.047 | 0.028 | 0.008 | 0.021 | 0.013 | 0.0953 | CCn1cc(-c2c(F)cccc2[C@@H]2CN(C(=O)/C=C/CN(C)C)Cc3sc(C#N)c(C)c32)c(C(F)(F)F)n1 [Example 46, (S, E)-6-(4-(dimethylamino)but-2-enoyl)-4-(2-(1-ethyl-3-(trifluoromethyl)-1 H-pyrazol-4-yl)-3-fluorophenyl)-3-methyl-4,5,6,7-tetrahydrothieno[2,3-c]pyridine-2-carbonitrile] |
| 30 (≈ 15.5 µg/mL) | 28 (≈ 14.5 µg/mL) | 0.064 | 0.033 | 0.02 | 0.062 | 0.039 | 0.157 | CCn1cc(-c2c(F)cccc2[C@@H]2CN(C(=O)/C=C/CNC)Cc3sc(C#N)cc32)c(C(F)(F)F)n1 [Example 50] |
